From US20120016000A1, “METHOD TO ASSAY PHOSPHOLIPID AND TRIGLYCERIDE TRANSFER ACTIVITY OF MICROSOMAL TRIGLYCERIDE TRANSFER PROTEIN” (priority 2010, published 2012)
pIC50: −log10 of the molar value. Each block holds one compound with its values, some of them ahead of it.

Columns and labels:
[1] = target: T1, purified bovine liver MTP (Bos taurus, UniProt P55156); experiment: Fluorescence triglyceride (NBD-TG) transfer activity assay of MTP; format: biochemical; settings: dose-dependent inhibition, FIG. 5A
T1 construct: purified bovine liver MTP; from tissue; host or cells: bovine liver
T1 sequence (P55156 19-887 limits assumed): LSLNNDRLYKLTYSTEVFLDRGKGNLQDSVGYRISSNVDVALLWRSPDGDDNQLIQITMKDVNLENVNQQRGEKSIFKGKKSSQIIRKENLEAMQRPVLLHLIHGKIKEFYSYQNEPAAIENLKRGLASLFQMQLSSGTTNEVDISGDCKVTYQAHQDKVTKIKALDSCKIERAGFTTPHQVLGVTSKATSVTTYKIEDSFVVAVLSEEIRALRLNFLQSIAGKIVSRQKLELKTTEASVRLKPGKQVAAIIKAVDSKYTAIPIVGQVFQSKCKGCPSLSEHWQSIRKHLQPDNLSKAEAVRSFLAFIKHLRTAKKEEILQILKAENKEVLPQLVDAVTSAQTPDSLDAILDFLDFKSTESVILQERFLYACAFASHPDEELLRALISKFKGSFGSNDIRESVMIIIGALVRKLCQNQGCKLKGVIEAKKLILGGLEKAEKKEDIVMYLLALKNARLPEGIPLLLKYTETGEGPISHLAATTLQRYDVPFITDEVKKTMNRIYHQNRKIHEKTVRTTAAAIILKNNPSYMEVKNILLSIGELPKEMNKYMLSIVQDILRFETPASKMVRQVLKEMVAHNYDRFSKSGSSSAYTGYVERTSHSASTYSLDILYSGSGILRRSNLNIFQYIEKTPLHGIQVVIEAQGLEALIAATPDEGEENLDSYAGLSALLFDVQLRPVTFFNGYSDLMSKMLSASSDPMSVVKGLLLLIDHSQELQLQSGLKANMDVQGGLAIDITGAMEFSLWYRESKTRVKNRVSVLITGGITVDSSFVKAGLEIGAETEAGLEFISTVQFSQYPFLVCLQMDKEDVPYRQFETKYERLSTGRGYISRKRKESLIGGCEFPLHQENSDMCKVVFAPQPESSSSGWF
T1 sequence (P05307 21-510 partner): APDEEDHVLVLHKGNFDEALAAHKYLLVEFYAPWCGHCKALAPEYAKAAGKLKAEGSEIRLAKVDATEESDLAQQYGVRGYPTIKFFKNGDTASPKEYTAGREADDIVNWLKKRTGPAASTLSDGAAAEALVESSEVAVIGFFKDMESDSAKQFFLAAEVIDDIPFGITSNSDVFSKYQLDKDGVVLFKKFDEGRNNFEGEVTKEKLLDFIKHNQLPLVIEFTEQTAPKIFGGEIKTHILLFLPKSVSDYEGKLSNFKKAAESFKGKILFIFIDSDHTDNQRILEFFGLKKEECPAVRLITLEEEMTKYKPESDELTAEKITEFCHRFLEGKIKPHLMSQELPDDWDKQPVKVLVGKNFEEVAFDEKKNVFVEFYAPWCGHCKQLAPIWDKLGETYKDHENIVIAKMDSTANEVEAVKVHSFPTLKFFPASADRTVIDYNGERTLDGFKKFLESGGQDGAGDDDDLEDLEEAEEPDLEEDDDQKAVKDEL
Text: (§1) The present invention is directed to very selective, simple, rapid and sensitive fluorescence assays to measure triglyceride (NBD-TG) and phospholipid (NBD-PE) transfer by MTP. These assays have been modified and developed into a “mix and measure” format kit that is stable, user friendly, and consists of only two components: a master mix and purified MTP. The master mix contains all the ingredients necessary for MTP activity. In this assay, MTP transfers fluorescent lipids from donor to acceptor vesicles. Lipid fluorescence in these vesicles is mostly quenched. Unquenched fluorescence (˜0.05% of total fluorescence) is measured as background. During the transfer of fluorescent lipids by MTP, fluorescence is exposed to aqueous phase and detected by the Fluorimeter. These fluorescence measurements represent the amount being transferred. Inclusion of antagonist during these assays reduces increases in fluorescence and represents inhibition of the transfer activity. […]
(§2) Increasing amounts of DMSO (0-1%) had no significant effect on both triglyceride (FIG. 3A) and phospholipid (FIG. 3B) transfer activities of MTP. […] Evaluation of signal-to-noise ratio of assay across the entire 96-well plate: Fluorescence in the blank (n=48) and MTP (n=48) was used to determine the values of noise and signal, respectively. […]

[2] = target: T1, purified bovine liver MTP; experiment: Fluorescence phospholipid (NBD-PE) transfer activity assay of MTP; format: biochemical; settings: dose-dependent inhibition, FIG. 5B
Text: as §1, §2

[3] = guinea pigs; cited from earlier work
[4] = in vivo; cited from earlier work

pIC50 [1]: 9.48 | pIC50 [2]: 8.03
SMILES: O=C(Nc1ccc2c(c1)CCN(Cc1ncn[nH]1)C2)c1ccccc1-c1ccc(C(F)(F)F)cc1 [CP-346086]

SMILES: CCOC(=O)C(COC(=O)Cc1ccc(NC(=O)c2ccccc2-c2ccc(C(F)(F)F)cc2)c(C(=O)N(C)C)c1)(C(=O)OCC)c1ccccc1 [JTT-130]
hepatic triglyceride [3]: without increasing hepatic triglyceride | plasma triglyceride and LDL cholesterol [3]: lower plasma triglyceride and LDL cholesterol

SMILES: COc1cccc(C(=O)Nc2ccc3c(c2)CCN(C(=O)Oc2ccccc2)C3)c1-c1ccc(C(F)(F)F)cc1 [SLx-4090]
plasma lipids [4]: lower plasma lipids
